Reference: the NIST ThermoML archive (doi:10.1016/j.jct.2011.05.017)

Experiment: xn = mol fraction of the nth substance listed
Conditions: 298.15 K, 101 kPa, Liquid, Vibrating tube method

CCC(C)Cl (stereo not drawn) [2-chlorobutane] + CC(C)CO
Conditions | mass density [kg/m3]
x1 = 0.0579 | 801.82
x1 = 0.1152 | 805.77
x1 = 0.2274 | 813.51
x1 = 0.3166 | 819.67
x1 = 0.4235 | 827.01
x1 = 0.4896 | 831.53
x1 = 0.5564 | 836.12
x1 = 0.6097 | 839.79
x1 = 0.6872 | 845.08
x1 = 0.7523 | 849.59
x1 = 0.809 | 853.54
x1 = 0.8487 | 856.33
x1 = 0.8975 | 859.77
x1 = 0.9293 | 862.05
x1 = 0.9638 | 864.55
x1 = 1 | 867.21

CCC(C)Cl (stereo not drawn) [2-chlorobutane] + CCCCOC(C)=O
Conditions | mass density [kg/m3]
x1 = 0.0787 | 875.55
x1 = 0.1618 | 874.83
x1 = 0.233 | 874.2
x1 = 0.325 | 873.36
x1 = 0.3861 | 872.8
x1 = 0.4512 | 872.2
x1 = 0.506 | 871.7
x1 = 0.5902 | 870.94
x1 = 0.6656 | 870.27
x1 = 0.7352 | 869.65
x1 = 0.7862 | 869.19
x1 = 0.8516 | 868.6
x1 = 0.8961 | 868.19
x1 = 0.9458 | 867.73
x1 = 1 | 867.21

CC(C)CO [2-methyl-1-propanol] + CCC(C)Cl
Conditions | mass density [kg/m3]
x2 = 0 | 797.82

CC(C)CO [2-methyl-1-propanol] + CCCCOC(C)=O
Conditions | mass density [kg/m3]
x2 = 0 | 797.82

CCCCOC(C)=O [butyl ethanoate] + CC(C)CO
Conditions | mass density [kg/m3]
x1 = 0.0589 | 802.41
x1 = 0.1065 | 806.12
x1 = 0.1907 | 812.7
x1 = 0.272 | 819.03
x1 = 0.3894 | 828.2
x1 = 0.4427 | 832.34
x1 = 0.5277 | 838.96
x1 = 0.607 | 845.14
x1 = 0.6829 | 851.07
x1 = 0.7405 | 855.58
x1 = 0.8166 | 861.57
x1 = 0.87 | 865.79
x1 = 0.9312 | 870.67
x1 = 1 | 876.2

CCCCOC(C)=O [butyl ethanoate] + CCC(C)Cl
Conditions | mass density [kg/m3]
x2 = 0 | 876.2
